ChEMBL document CHEMBL4390667, “Novel tacrine-tryptophan hybrids: Multi-target directed ligands as potential treatment for Alzheimer's disease” (Eur J Med Chem, 2019)
Active and inactive are the calls of the source. The rule behind the calls is not given here.

Key:
[1] = target: Cholinesterase (Homo sapiens, UniProt P06276)
Description: Inhibition of human recombinant BChE using butyrylthiocholine iodide as substrate preincubated for 5 mins followed by substrate addition and measured over 2 mins by UV-Vis spectrophotometric analysis based Ellman's method

[2] = target: Acetylcholinesterase (Homo sapiens, UniProt P22303)
Description: Inhibition of human recombinant AChE using acetylthiocholine iodide as substrate preincubated for 5 mins followed by substrate addition and measured over 2 mins by UV-Vis spectrophotometric analysis based Ellman's method

[3] = test system: CHO-K1; test: cells; conditions: Cricetulus griseus, CHO-K1, 24 h
Description: Cytotoxicity against CHOK1 cells assessed as reduction in cell viability incubated for 24 hrs by MTT assay

[4] = target: Nitric oxide synthase 1 (Rattus norvegicus, UniProt P29476)
Description: Inhibition of nNOS in Wistar rat cortical homogenates incubated for 30 mins

[5] = pampa, pH 7.4, 100 µM
Description: Effective permeability of the compound in PBS buffer at pH 7.4 at 100 uM after 3 to 6 hrs by PAMPA

[6] = test system: HepG2; test: cells; conditions: Homo sapiens, HepG2, 24 h
Description: Cytotoxicity against human HepG2 cells assessed as reduction in cell viability incubated for 24 hrs by MTT assay

[7] = test system: Rattus norvegicus; test: Antialzhemeric activity in Wistar rat model of scopolamine-induced cognition deficit assessed as effect on distance moved at 10 nM, icv dosed 60 mins prior to training trial by Morris water maze test; type: functional, organism-based
[8] = test system: Rattus norvegicus; test: Antialzhemeric activity in Wistar rat model of scopolamine-induced cognition deficit assessed as effect on average distance from platform at 10 nM, icv dosed 60 mins prior to training trial by Morris water maze test; type: functional, organism-based
[9] = Toxicity in ip dosed Wistar rat assessed as maximum tolerated dose measured during first 2 hrs then periodically for 48 hrs; type: organism-based; conditions: in vivo
[10] = test system: Rattus norvegicus; test: Antialzhemeric activity in icv dosed Wistar rat model of scopolamine-induced cognition deficit assessed as effect on distance moved dosed 60 mins prior to training trial by Morris water maze test; type: functional, organism-based
[11] = Toxicity in Wistar rat assessed as induction of intermittent tremors and prostration at 70 mg/kg, ip measured during first 2 hrs then periodically for 48 hrs; type: organism-based; conditions: in vivo
[12] = Toxicity in Wistar rat assessed as induction of partial piloerection at 70 mg/kg, ip measured during first 2 hrs then periodically for 48 hrs; type: organism-based; conditions: in vivo
[13] = test system: Rattus norvegicus; test: Antialzhemeric activity in icv dosed Wistar rat model of scopolamine-induced cognition deficit assessed as effect on escape latency dosed 60 mins prior to training trial by Morris water maze test; type: functional, organism-based
[14] = Toxicity in Wistar rat assessed as effect on time spent in the target sector at 100 nM, icv by Morris water maze assay; conditions: in vivo, icv_or_intrathecal, 0.1 µM
[15] = test system: Rattus norvegicus; test: Antialzhemeric activity in Wistar rat model of scopolamine-induced cognition deficit assessed as effect on time in target sector at 10 nM, icv dosed 60 mins prior to training trial by Morris water maze test; type: functional, organism-based
[16] = Toxicity in Wistar rat assessed as effect on escape latency at 100 nM, icv by Morris water maze assay; conditions: in vivo, icv_or_intrathecal, 0.1 µM
[17] = Toxicity in Wistar rat assessed as effect on average distance from platform at 100 nM, icv by Morris water maze assay; conditions: in vivo, icv_or_intrathecal, 0.1 µM
[18] = Toxicity in Wistar rat assessed as induction of diminishing spontaneously and prostration at 70 mg/kg, ip measured during first 2 hrs; type: organism-based; conditions: in vivo
[19] = test system: Rattus norvegicus; test: Antialzhemeric activity in Wistar rat model of scopolamine-induced cognition deficit assessed as effect on escape latency at 10 nM, icv dosed 60 mins prior to training trial by Morris water maze test; type: functional, organism-based
[20] = test system: Rattus norvegicus; test: Antialzhemeric activity in icv dosed Wistar rat model of scopolamine-induced cognition deficit assessed as effect on time in target sector dosed 60 mins prior to training trial by Morris water maze test; type: functional, organism-based
[21] = Toxicity in Wistar rat assessed as effect on distance moved at 100 nM, icv by Morris water maze assay; conditions: in vivo, icv_or_intrathecal, 0.1 µM
[22] = Toxicity in Wistar rat assessed as change in body weight weight at 70 mg/kg, ip after 24 and 48 hrs; type: organism-based; conditions: in vivo
[23] = test system: Rattus norvegicus; test: Antialzhemeric activity in icv dosed Wistar rat model of scopolamine-induced cognition deficit assessed as effect on average distance from platform dosed 60 mins prior to training trial by Morris water maze test; type: functional, organism-based
[24] = test system: Rattus norvegicus; test: Antialzhemeric activity in Wistar rat model of scopolamine-induced cognition deficit assessed as effect on escape latency at 100 nM, icv dosed 60 mins prior to training trial by Morris water maze test; type: functional, organism-based
[25] = test system: Rattus norvegicus; test: Antialzhemeric activity in Wistar rat model of scopolamine-induced cognition deficit assessed as effect on average distance from platform at 100 nM, icv dosed 60 mins prior to training trial by Morris water maze test; type: functional, organism-based
[26] = Toxicity in Wistar rat assessed as induction of salivation at 100 nM, icv by Morris water maze assay; conditions: in vivo, icv_or_intrathecal, 0.1 µM
[27] = Toxicity in Wistar rat assessed as induction of tremors at 100 nM, icv by Morris water maze assay; conditions: in vivo, icv_or_intrathecal, 0.1 µM
[28] = Toxicity in Wistar rat assessed as induction of intermittent abnormal breathing pattern at 70 mg/kg, ip measured during first 2 hrs then periodically for 48 hrs; type: organism-based; conditions: in vivo
[29] = test system: Rattus norvegicus; test: Antialzhemeric activity in Wistar rat model of scopolamine-induced cognition deficit assessed as effect on time in target sector at 100 nM, icv dosed 60 mins prior to training trial by Morris water maze test; type: functional, organism-based
[30] = Toxicity in Wistar rat assessed as induction of persistent oculonasal discharge at 70 mg/kg, ip measured during first 2 hrs then periodically for 48 hrs; type: organism-based; conditions: in vivo
[31] = test system: Rattus norvegicus; test: Antialzhemeric activity in Wistar rat model of scopolamine-induced cognition deficit assessed as effect on distance moved at 100 nM, icv dosed 60 mins prior to training trial by Morris water maze test; type: functional, organism-based
[32] = target: Acetylcholinesterase (Electrophorus electricus, UniProt O42275); test: Displacement of propidium iodide from peripheral binding site of electric eel AChE assessed as dissociation constant at 8 to 56 uM by spectrofluorometry based Taylor and Lappi method
Acetylcholinesterase (Electrophorus electricus, UniProt O42275), sequence (O42275 whole entry): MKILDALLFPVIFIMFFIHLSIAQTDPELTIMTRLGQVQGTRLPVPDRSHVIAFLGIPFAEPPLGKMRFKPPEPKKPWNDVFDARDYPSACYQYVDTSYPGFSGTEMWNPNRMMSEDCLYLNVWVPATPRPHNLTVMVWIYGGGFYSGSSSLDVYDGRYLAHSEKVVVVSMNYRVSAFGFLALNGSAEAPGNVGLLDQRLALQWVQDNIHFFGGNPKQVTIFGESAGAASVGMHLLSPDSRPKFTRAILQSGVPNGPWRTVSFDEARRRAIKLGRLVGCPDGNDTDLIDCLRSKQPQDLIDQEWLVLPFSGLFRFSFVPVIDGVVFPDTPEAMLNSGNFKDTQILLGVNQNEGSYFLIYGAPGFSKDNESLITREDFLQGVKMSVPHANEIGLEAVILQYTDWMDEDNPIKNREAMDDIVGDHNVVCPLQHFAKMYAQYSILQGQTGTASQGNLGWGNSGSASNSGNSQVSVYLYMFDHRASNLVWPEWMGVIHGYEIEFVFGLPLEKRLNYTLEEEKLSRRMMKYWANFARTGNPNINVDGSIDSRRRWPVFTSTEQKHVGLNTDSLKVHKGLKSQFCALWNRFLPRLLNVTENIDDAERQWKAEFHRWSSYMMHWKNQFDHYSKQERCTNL

Nitric oxide synthase 1, sequence (P29476 whole entry, looked up): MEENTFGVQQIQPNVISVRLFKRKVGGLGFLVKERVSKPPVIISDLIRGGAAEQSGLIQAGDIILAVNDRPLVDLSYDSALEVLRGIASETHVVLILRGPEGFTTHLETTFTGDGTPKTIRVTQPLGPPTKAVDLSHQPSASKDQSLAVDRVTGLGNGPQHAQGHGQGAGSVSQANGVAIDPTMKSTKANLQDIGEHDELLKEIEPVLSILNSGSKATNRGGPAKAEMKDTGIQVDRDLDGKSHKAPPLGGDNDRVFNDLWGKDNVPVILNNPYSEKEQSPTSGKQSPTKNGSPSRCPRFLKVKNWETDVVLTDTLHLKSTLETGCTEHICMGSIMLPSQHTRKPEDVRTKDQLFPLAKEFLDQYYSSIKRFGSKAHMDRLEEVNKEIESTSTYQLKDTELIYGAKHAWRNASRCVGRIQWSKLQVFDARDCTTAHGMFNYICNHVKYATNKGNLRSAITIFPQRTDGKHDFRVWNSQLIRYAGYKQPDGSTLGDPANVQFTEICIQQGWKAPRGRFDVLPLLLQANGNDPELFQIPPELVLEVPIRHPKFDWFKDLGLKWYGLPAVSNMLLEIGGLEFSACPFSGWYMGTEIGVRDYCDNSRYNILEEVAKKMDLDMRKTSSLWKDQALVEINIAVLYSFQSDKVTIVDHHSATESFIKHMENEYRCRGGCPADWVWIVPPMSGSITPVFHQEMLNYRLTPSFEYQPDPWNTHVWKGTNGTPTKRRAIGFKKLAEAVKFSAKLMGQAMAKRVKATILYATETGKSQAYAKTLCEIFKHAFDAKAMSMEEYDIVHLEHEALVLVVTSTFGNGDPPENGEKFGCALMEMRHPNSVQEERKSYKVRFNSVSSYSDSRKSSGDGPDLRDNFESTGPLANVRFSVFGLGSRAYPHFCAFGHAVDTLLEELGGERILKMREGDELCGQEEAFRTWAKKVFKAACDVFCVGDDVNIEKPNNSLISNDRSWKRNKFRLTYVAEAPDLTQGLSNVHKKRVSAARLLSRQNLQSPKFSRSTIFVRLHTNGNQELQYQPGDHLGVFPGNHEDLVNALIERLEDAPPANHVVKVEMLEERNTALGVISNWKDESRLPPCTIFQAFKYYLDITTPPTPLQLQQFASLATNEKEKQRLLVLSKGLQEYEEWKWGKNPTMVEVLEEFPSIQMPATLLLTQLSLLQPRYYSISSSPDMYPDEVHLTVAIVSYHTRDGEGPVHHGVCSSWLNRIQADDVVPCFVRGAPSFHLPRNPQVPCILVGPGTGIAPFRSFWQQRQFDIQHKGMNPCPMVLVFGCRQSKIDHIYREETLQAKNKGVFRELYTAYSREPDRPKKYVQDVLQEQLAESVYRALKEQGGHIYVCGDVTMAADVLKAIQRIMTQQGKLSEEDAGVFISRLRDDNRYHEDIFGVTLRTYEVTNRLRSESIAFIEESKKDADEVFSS
Acetylcholinesterase (Homo sapiens, UniProt P22303), sequence (P22303 whole entry): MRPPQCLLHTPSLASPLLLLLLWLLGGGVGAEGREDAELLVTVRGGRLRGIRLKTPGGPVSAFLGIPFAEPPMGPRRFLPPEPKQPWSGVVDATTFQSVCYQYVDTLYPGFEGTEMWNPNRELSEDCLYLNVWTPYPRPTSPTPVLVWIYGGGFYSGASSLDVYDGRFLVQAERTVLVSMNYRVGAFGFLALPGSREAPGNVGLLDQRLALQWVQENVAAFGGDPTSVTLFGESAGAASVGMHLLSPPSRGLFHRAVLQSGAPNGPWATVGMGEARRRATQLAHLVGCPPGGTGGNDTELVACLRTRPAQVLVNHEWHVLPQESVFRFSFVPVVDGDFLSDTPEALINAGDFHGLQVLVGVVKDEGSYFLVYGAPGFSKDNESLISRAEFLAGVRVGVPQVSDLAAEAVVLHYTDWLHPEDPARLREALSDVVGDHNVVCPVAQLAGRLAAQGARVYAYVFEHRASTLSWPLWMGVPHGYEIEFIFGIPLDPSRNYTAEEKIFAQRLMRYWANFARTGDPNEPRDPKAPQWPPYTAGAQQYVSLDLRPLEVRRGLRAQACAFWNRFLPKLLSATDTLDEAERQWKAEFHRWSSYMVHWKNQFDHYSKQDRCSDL
Cholinesterase, sequence (P06276 whole entry): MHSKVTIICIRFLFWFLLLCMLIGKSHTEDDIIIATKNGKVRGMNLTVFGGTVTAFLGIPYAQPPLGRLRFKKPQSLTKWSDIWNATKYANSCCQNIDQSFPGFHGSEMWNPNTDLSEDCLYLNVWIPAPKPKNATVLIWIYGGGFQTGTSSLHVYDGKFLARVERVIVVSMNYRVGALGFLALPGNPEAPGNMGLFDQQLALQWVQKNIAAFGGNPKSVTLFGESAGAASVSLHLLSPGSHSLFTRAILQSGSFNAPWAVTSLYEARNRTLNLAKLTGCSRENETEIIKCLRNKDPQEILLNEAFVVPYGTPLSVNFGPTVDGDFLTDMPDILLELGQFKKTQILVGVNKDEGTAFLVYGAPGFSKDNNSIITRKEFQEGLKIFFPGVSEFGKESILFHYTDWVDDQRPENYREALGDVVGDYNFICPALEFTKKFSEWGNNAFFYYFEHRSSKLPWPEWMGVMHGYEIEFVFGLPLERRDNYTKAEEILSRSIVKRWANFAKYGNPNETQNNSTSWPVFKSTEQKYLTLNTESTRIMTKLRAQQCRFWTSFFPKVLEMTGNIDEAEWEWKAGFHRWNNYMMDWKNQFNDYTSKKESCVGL

Work on `O=C(CCCCCCNc1c2c(nc3cccc(Cl)c13)CCCC2)NCCc1c[nH]c2ccccc12` yielded an IC50 [1] of 7.8 nM and an IC50 [2] of 0.008 nM.
For `N[C@@H](Cc1c[nH]c2ccccc12)C(=O)NCCCNc1c2c(nc3cc(Cl)ccc13)CCCC2`, the IC50 [3] was 29 µM, the IC50 [4] was 31 µM and the IC50 [1] was 140 nM. For the same compound, the IC50 [2] was 70 nM.
`COc1ccc2nc3c(c(NCCCCNC(=O)[C@@H](N)Cc4c[nH]c5ccccc45)c2c1)CCCC3.Cl.Cl` showed an IC50 [3] of 73 µM, an IC50 [4] of 27 µM and an IC50 [1] of 520 nM. For the same compound, the permeability [5] was “Impermeable” and the IC50 [2] was 12000 nM.
Compound `COc1ccc2nc3c(c(NCCNC(=O)[C@@H](N)Cc4c[nH]c5ccccc45)c2c1)CCCC3.Cl.Cl` has an IC50 [3] of 131 µM, an IC50 [4] of 19 µM and an IC50 [1] of 480 nM. The permeability [5] was “Impermeable” and the IC50 [2] was 5700 nM.
For `Cl.Cl.N[C@@H](Cc1c[nH]c2ccccc12)C(=O)NCCCNc1c2c(nc3ccccc13)CCCC2`, the IC50 [3] was 116 µM, the IC50 [4] was 32 µM and the IC50 [1] was 40 nM. For the same compound, the permeability [5] was “Impermeable” and the IC50 [2] was 580 nM.
For `COc1ccc2nc3c(c(NCCCCCCNC(=O)[C@@H](N)Cc4c[nH]c5ccccc45)c2c1)CCCC3`, the IC50 [3] was 23 µM, the IC50 [4] was 27 µM and the IC50 [1] was 55 nM. For the same compound, the IC50 [6] was 16 µM and the IC50 [2] was 940 nM.
With `COc1ccc2nc3c(c(NCCCCCCCNC(=O)[C@@H](N)Cc4c[nH]c5ccccc45)c2c1)CCCC3` the IC50 [3] was 14 µM, the IC50 [4] was 26 µM and the IC50 [1] was 78 nM. It also gave an IC50 [6] of 5.6 µM and an IC50 [2] of 980 nM.
Work on `Cl.Cl.N[C@@H](Cc1c[nH]c2ccccc12)C(=O)NCCCCCCCNc1c2c(nc3ccccc13)CCCC2` yielded an IC50 [3] of 248 µM, an IC50 [4] of 32 µM and an IC50 [1] of 25 nM. The permeability [5] was “Impermeable” and the IC50 [2] was 120 nM.
Work on `Cl.Cl.N[C@@H](Cc1c[nH]c2ccccc12)C(=O)NCCNc1c2c(nc3ccccc13)CCCC2` yielded an IC50 [3] of 200 µM, an IC50 [4] of 33 µM and an IC50 [1] of 56 nM. For the same compound, the permeability [5] was “Impermeable” and the IC50 [2] was 730 nM.
Work on `Cl.Cl.N[C@@H](Cc1c[nH]c2ccccc12)C(=O)NCCCCCCCCNc1c2c(nc3cc(Cl)ccc13)CCCC2` yielded an IC50 [3] of 65 µM, an IC50 [4] of 43 µM and an IC50 [1] of 140 nM. For the same compound, the permeability [5] was “Permeable” and the IC50 [2] was 50 nM.
Work on `N[C@@H](Cc1c[nH]c2ccccc12)C(=O)NCCCCNc1c2c(nc3cc(Cl)ccc13)CCCC2` yielded an IC50 [3] of 16 µM, an IC50 [4] of 26 µM and an IC50 [1] of 120 nM. The IC50 [2] was 62 nM.
For `O=C(CCCCCNc1c2c(nc3cc(Cl)ccc13)CCCC2)NCCc1cc2ccccc2[nH]1`, the IC50 [1] was 180 nM, the permeability [5] was “Permeable” and the IC50 [2] was 0.73 nM.
For `N[C@@H](Cc1c[nH]c2ccccc12)C(=O)NCCCCCCCCNc1c2c(nc3ccccc13)CCCC2`, the IC50 [3] was 47 µM, the IC50 [4] was 37 µM and the IC50 [1] was 64 nM. The IC50 [6] was 9.3 µM and the IC50 [2] was 76 nM.
Compound `COc1ccc2nc3c(c(NCCCCCCCCNC(=O)[C@@H](N)Cc4c[nH]c5ccccc45)c2c1)CCCC3` has an IC50 [3] of 43 µM, an IC50 [4] of 45 µM and an IC50 [1] of 130 nM. For the same compound, the IC50 [2] was 1300 nM.
In the case of `Cl.Cl.N[C@@H](Cc1c[nH]c2ccccc12)C(=O)NCCCCCCNc1c2c(nc3cc(Cl)ccc13)CCCC2`, the Activity [7] is reported as “inactive”, the Activity [8] is reported as “Active” and the MTD at 48 h [9] is reported as 70 mg/kg. For the same compound, the Activity [10] was “Dose-dependent effect”, the IC50 [3] was 21 µM and the Activity [11] was “Toxic”. The Activity [12] was “Toxic”, the Activity [13] was “Dose-dependent effect” and the Activity [14] was “Non-Toxic”. The Activity [15] was “Active”, the Activity [16] was “Non-Toxic” and the IC50 [4] was 26 µM. For the same compound, the IC50 [1] was 9.1 nM, the Activity [17] was “Non-Toxic” and the Activity [18] was “Toxic”. The Activity [19] was “Active”, the IC50 [6] was 4.9 µM and the Activity [20] was “Dose-dependent effect”. For the same compound, the Activity [21] was “Non-Toxic”, the permeability [5] was “Permeable” and the Activity [22] was “Non-Toxic”. For the same compound, the Activity [23] was “Dose-dependent effect”, the Activity [24] was “Active” and the Activity [25] was “Active”. For the same compound, the Activity [26] was “Non-Toxic”, the Activity [27] was “Non-Toxic” and the Activity [28] was “Toxic”. For the same compound, the Activity [29] was “Active”, the Activity [30] was “Toxic” and the Activity [31] was “Active”. For the same compound, the Kd [32] was 4.82 µM and the IC50 [2] was 6.3 nM.
